According to patent US20110118238A1, “2-ANILINOPURIN-8-ONES AS INHIBITORS OF TTK/MPS1 FOR THE TREATMENT OF PROLIFERATIVE DISORDERS” (ASTRAZENECA AB, priority 2007, published 2011):

What was measured:
[1] = molecular target: T1, N-terminal GST tagged full length human TTK kinase (Homo sapiens, UniProt P33981); assay: In Vitro TTK Kinase Assay 2 (Caliper LabChip LC3000); assay type: biochemical; conditions: recombinant TTK, 12 μM ATP, read-out: EAA2: Enzyme Assay Activity (In Vitro TTK kinase assay 2)
T1 construct: N-terminal GST tagged full length human TTK kinase; GST (N); made in house; host or cells: insect cells
T1 sequence (P33981 1-857): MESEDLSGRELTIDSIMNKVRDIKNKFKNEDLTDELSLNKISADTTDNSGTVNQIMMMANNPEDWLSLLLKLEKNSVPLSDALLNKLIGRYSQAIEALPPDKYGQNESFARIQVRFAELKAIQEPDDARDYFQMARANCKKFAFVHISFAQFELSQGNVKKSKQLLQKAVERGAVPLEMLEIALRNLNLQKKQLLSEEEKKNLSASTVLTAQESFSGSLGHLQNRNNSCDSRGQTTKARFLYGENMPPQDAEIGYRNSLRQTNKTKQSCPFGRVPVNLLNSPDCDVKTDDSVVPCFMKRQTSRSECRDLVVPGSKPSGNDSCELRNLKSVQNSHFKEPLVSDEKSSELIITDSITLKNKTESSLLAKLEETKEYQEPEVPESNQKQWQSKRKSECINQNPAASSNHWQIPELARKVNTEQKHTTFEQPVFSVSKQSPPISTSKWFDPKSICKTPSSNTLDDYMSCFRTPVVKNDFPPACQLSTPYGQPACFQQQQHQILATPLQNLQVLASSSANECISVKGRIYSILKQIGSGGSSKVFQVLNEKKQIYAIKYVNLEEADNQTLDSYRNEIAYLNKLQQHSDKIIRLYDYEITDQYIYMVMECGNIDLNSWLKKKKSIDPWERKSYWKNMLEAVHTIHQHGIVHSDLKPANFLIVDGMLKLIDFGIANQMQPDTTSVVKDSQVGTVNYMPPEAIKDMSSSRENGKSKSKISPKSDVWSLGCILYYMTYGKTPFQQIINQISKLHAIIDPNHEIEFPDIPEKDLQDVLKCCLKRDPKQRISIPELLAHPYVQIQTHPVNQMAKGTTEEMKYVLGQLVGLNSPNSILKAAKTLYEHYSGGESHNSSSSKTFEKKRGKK
Description: Each reaction was stopped by the addition of EDTA to a concentration of 40 mM in a solution which also comprised 0.1% coating reagent (Caliper LS), 100 mM HEPES pH 7.5, 0.015% v/v Brij™-35 and 5% DMSO. The stopped enzyme reactions were sipped through capillaries onto a Caliper chip where the peptide substrate and phosphorylated product were separated and detected via laser-induced fluorescence.

[2] = tested on: human colon tumour cell line HT29; assay: Spindle Checkpoint Abrogation Assay (phosphohistone H3 serine 10); assay type: cell-based; conditions: HT-29, HT29 cells, paclitaxol 7.8 nM, compound 5 h, histone H3 serine 10 positive cells, read-out: SCAA: Spindle checkpoint abrogation assay activity
Description: Chromosome condensation in mitosis is accompanied by phosphorylation of histone H3 on serine 10. Dephosphorylation begins in anaphase and ends at early telophase, thus histone H3 serine 10 phosphorylation acts as an excellent mitotic marker. Paclitaxol is a microtubule stabilising drug which perturbs microtubule dynamics, invokes the spindle checkpoint and arrests cells in mitosis. These cells are positive for histone H3 serine 10 phosphorylation. Inhibition of the spindle checkpoint overrides the mitotic block in the presence of paclitaxol and the histone H3 serine 10 endpoint is used as a marker to determine the ability of compounds of the present invention to exit mitotic arrest prematurely.
Cells of the human colon tumour cell line HT29 were seeded into 96 well black plates (Costar, Catalogue No 3904) in phenol red free Dulbecco's Modified Eagles Medium (DMEM) supplemented with 10% (v/v) FCS and 1% (v/v) L-Glutamine and incubated overnight at 37° C. Paclitaxol was added to the cells at a concentration of 7.8 nM and the cells incubated overnight prior to compound dosing. Test compounds were solubilised in DMSO, diluted to give a range of final assay concentrations, added to cells and incubated for 5 h at 37° C. […] The raw assay data were analysed by non-linear regression analysis and used to determine an IC50 value for each compound.

[3] = molecular target: T1, N-terminal GST tagged full length human TTK kinase; assay: In Vitro TTK Kinase Assay 1 (AlphaScreen); assay type: biochemical; conditions: recombinant TTK, 10 μM ATP, read-out: EAA: Enzyme Assay Activity (In Vitro TTK kinase assay 1)
Description: Aliquots (2 μL) of each compound dilution were placed into wells of a Greiner 384-well low volume white polystyrene plate (Greiner Bio-one).
The resultant signals arising from laser light excitation at 680 nm were read using a Packard Envision instrument.

IC50 [1]	IC50 [2]	IC50 [3]	SMILES
131 nM	2300 nM	–	Cn1c(=O)n(C2CCCC2)c2nc(Nc3ccc(S(C)(=O)=O)cc3F)ncc21 [Example 3, 9-Cyclopentyl-2-{[2-fluoro-4-(methylsulfonyl)phenyl]amino}-7-methyl-7,9-dihydro-8H-purin-8-one]
626 nM	3700 nM	–	CN1CCN(S(=O)(=O)c2ccc(Nc3ncc4c(n3)n(C3CCCC3)c(=O)n4C)cc2)CC1 [Example 13, 9-Cyclopentyl-7-methyl-2-({4-[(4-methylpiperazin-1-yl)-sulfonyl]-phenyl}amino)-7,9-dihydro-8H-purin-8-one]
14.8 nM	–	249 nM	CN1CCN(c2ccc(Nc3ncc4c(n3)n(C3CCCC3)c(=O)n4C)c(Cl)c2)CC1 [Example 18, 2-{[2-Chloro-4-(4-methylpiperazin-1-yl)phenyl]amino}-9-cyclopentyl-7-methyl-7,9-dihydro-8H-purin-8-one]
39.5 nM	–	249 nM	COc1cc(N2CCCN(C)CC2)ccc1Nc1ncc2c(n1)n(C1CCCC1)c(=O)n2C [Example 20, 9-Cyclopentyl-2-{[2-methoxy-4-(4-methyl-1,4-diazepan-1-yl)-phenyl]amino}-7-methyl-7,9-dihydro-8H-purin-8-one]
47.3 nM	–	384 nM	CCOc1cc(N2CCCN(C)CC2)ccc1Nc1ncc2c(n1)n(C1CCCC1)c(=O)n2C [Example 21, 9-Cyclopentyl-2-{[2-ethoxy-4-(4-methyl-1,4-diazepan-1-yl)-phenyl]amino}-7-methyl-7,9-dihydro-8H-purin-8-one]
118 nM	–	317 nM	COc1cc(NC2CCN(C)CC2)ccc1Nc1ncc2c(n1)n(C1CCCC1)c(=O)n2C [Example 22, 9-Cyclopentyl-2-({2-methoxy-4-[(1-methylpiperidin-4-yl)-amino]-phenyl}amino)-7-methyl-7,9-dihydro-8H-purin-8-one]
75.6 nM	–	703 nM	CCOc1cc(N2CCC(N(C)C)CC2)ccc1Nc1ncc2c(n1)n(C1CCCC1)c(=O)n2C [Example 23, 9-Cyclopentyl-2-({4-[4-(dimethylamino)piperidin-1-yl]-2-ethoxyphenyl}amino)-7-methyl-7,9-dihydro-8H-purin-8-one]
17.3 nM	–	151 nM	COc1cc(OC2CCN(C)C2)ccc1Nc1ncc2c(n1)n(C1CCCC1)c(=O)n2C (stereo not shown) [Example 24, 9-Cyclopentyl-2-({2-methoxy-4-[(1-methylpyrrolidin-3-yl)-oxy]-phenyl}amino)-7-methyl-7,9-dihydro-8H-purin-8-one]
28.9 nM	–	149 nM	CCOc1cc(OCCN(C)C)ccc1Nc1ncc2c(n1)n(C1CCCC1)c(=O)n2C [Example 25, 9-Cyclopentyl-2-({4-[2-(dimethylamino)ethoxy]-2-ethoxy-phenyl}-amino)-7-methyl-7,9-dihydro-8H-purin-8-one]
26 nM	–	50.9 nM	CCOc1cc(OC2CCN(C)CC2)ccc1Nc1ncc2c(n1)n(C1CCCC1)c(=O)n2C [Example 26, 9-Cyclopentyl-2-({2-ethoxy-4-[(1-methylpiperidin-4-yl)-oxy]-phenyl}amino)-7-methyl-7,9-dihydro-8H-purin-8-one]
24.1 nM	–	288 nM	COc1cc(CCN2CCN(C)CC2)ccc1Nc1ncc2c(n1)n(C1CCCC1)c(=O)n2C [Example 27, 9-Cyclopentyl-2-({2-methoxy-4-[2-(4-methylpiperazin-1-yl)-ethyl]phenyl}amino)-7-methyl-7,9-dihydro-8H-purin-8-one]
14.3 nM	–	55.4 nM	COc1cc(C2CCN(C)CC2)ccc1Nc1ncc2c(n1)n(C1CCCC1)c(=O)n2C [Example 28, 9-Cyclopentyl-2-{[2-methoxy-4-(1-methylpiperidin-4-yl)-phenyl]amino}-7-methyl-7,9-dihydro-8H-purin-8-one]
53.8 nM	–	220 nM	CCn1c(=O)n(C2CCCC2)c2nc(Nc3ccc(N4CCN(C)CC4)cc3OC)ncc21 [Example 29, 9-Cyclopentyl-7-ethyl-2-{[2-methoxy-4-(4-methylpiperazin-1-yl)-phenyl]amino}-7,9-dihydro-8H-purin-8-one]
10.8 nM	–	91.3 nM	CCn1c(=O)n(C2CCCC2)c2nc(Nc3ccc(OC4CCN(C)CC4)cc3OC)ncc21 [Example 30, 9-Cyclopentyl-7-ethyl-2-({2-methoxy-4-[(1-methylpiperidin-4-yl)-oxy]phenyl}amino)-7,9-dihydro-8H-purin-8-one]
16.4 nM	–	371 nM	CCn1c(=O)n(C2CCCC2)c2nc(Nc3ccc(C(=O)NC)cc3OC)ncc21 [Example 31, 4-[(9-Cyclopentyl-7-ethyl-8-oxo-8,9-dihydro-7H-purin-2-yl)-amino]-3-methoxy-N-methylbenzamide]
24.5 nM	–	1330 nM	CCn1c(=O)n(C2CCCC2)c2nc(Nc3ccc(S(C)(=O)=O)cc3OC)ncc21 [Example 32, 9-Cyclopentyl-7-ethyl-2-{[2-methoxy-4-(methylsulfonyl)-phenyl]-amino}-7,9-dihydro-8H-purin-8-one]
96.3 nM	–	1040 nM	CCn1c(=O)n(C2CCCC2)c2nc(Nc3ccc(S(N)(=O)=O)cc3)ncc21 [Example 34, 4-[(9-Cyclopentyl-7-ethyl-8-oxo-8,9-dihydro-7H-purin-2-yl)-amino]benzenesulfonamide]
21.6 nM	–	217 nM	COc1cc(N2CCN(C)CC2)ccc1Nc1ncc2c(n1)n(C1CCCC1)c(=O)n2CC#N [Example 36, (9-Cyclopentyl-2-{[2-methoxy-4-(4-methylpiperazin-1-yl)-phenyl]-amino}-8-oxo-8,9-dihydro-7H-purin-7-yl)acetonitrile]
83.4 nM	–	501 nM	COc1cc(C(=O)NC2CCN(C)CC2)ccc1Nc1ncc2c(n1)n(C1CCCC1)c(=O)n2CC#N [Example 37, 4-{[7-(Cyanomethyl)-9-cyclopentyl-8-oxo-8,9-dihydro-7H-purin-2-yl]amino}-3-methoxy-N-(1-methylpiperidin-4-yl)-benzamide]
131 nM	–	1510 nM	N#CCn1c(=O)n(C2CCCC2)c2nc(Nc3ccc(S(N)(=O)=O)cc3)ncc21 [Example 38, 4-{[7-(Cyanomethyl)-9-cyclopentyl-8-oxo-8,9-dihydro-7H-purin-2-yl]amino}benzenesulfonamide]
